Experimental data published in US9206134B2, “Polymorphic forms of compounds as prolyl hydroxylase inhibitor, and uses thereof” (BEIJING BETTA PHARMACEUTICALS CO. LTD., priority 2011, dated 2015).

Key:
[1] = test system: Erythropoietin (EPO); assay: Erythropoietin (EPO) induction in normal mice; assay type: in vivo; conditions: male C57BL/6 mice, oral suspension in 0.5% CMC, serum 6 hours after dosing
Method: Eight-week-old male C57BL/6 mice were dosed orally with a suspension of one crystal form of the compound in 0.5% CMC at 20, 60 and 100 mg/kg. Blood samples were obtained from the orbital venous plexus 6 hours after dosing and serum was collected (see also, Robinson A, et al., Gastroenterology. 2008, 134:145-55; Hsieh M M, et al., Blood. 2007, 110:2140-7). Samples were analyzed for EPO by electrochemiluminescence-based immunoassay (MSD) according to manufacturer's instructions. The inducted EPOs when the Crystalline Form VI in this invention was used in suspension were determined to be around 6, 297 and above 300 folds over that of the vehicle group without induction.

[2] = Stability determination of crystal forms (competitive slurry in isopropyl acetate); assay type: physicochemical; conditions: Forms IV and VI stirred together in isopropyl acetate solution of compound of Formula I, room temperature, 36 hrs; resulted crystal form purely Form VI
Method: 9.6 mg of the Crystalline Form IV and 1.97 mg of the Crystalline Form VI disclosed in this invention were then added into the solution and stirred at room temperature for 36 hrs. After centrifugation and drying, the resulted crystal form was determined to be purely the Crystalline Form VI.

Structure (SMILES): Cc1nc(C(=O)NCC(=O)O)c(O)c2ccc(Oc3ccccc3)cc12 [Crystalline Form VI]
- inducted EPO over that of the vehicle group ([1]; 20 mg/kg): around 6 folds
- inducted EPO over that of the vehicle group ([1]; 60 mg/kg): ~297 folds
- inducted EPO over that of the vehicle group ([1]; 100 mg/kg): above 300 folds
- thermodynamic stability of crystal form [2]: thermodynamically the most stable crystal form
